Reference: US8680012B2, “4-phenyl-pyrane-3,5-diones,4-phenyl-thiopyrane-3,6-diones and cyclohexanetriones as novel herbicides” (Syngenta Crop Protection LLC, priority 2006, dated 2014)

Assays:
Assay type in all cases: in vivo
[1] = tested on: Alopecurus myosuroides (ALOMY); assay: Example B pre-emergence herbicidal activity, glasshouse pot test; conditions: 312 h, rate 250 g/ha, evaluated after 13 days, read-out: Pre-emergence activity ALOMY (100=total damage to plant; 0=no damage to plant)
Outline: (§1)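 Pots, standard soil; spray at day 1 (pre) or day 8 (post); a.i. formulated in acetone/water 50:50 + 0.5% Tween 20; 24/16 °C, 14 h light, 65% RH, watered twice daily; visual rating at 13 d (0 = no damage, 100 = total damage).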

[2] = tested on: Echinochloa crus-galli (ECHCG); assay: as above; conditions: 312 h, rate 250 g/ha, evaluated after 13 days, read-out: Pre-emergence activity ECHCG (100=total damage to plant; 0=no damage to plant)
Outline: as §1

Solanum nigrum (SOLNI) [3] = assay: as above; conditions: 312 h, rate 250 g/ha, evaluated after 13 days, read-out: Pre-emergence activity SOLNI (100=total damage to plant; 0=no damage to plant)
Outline: as §1

Avena fatua (AVEFA) [4] = assay: as above; conditions: 312 h, rate 250 g/ha, evaluated after 13 days, read-out: Pre-emergence activity AVEFA (100=total damage to plant; 0=no damage to plant)
Outline: as §1

[5] = tested on: Amaranthus retroflexus (AMARE); assay: as above; conditions: 312 h, rate 250 g/ha, evaluated after 13 days, read-out: Pre-emergence activity AMARE (100=total damage to plant; 0=no damage to plant)
Outline: as §1

Setaria faberi (SETFA) [6] = assay: as above; conditions: 312 h, rate 250 g/ha, evaluated after 13 days, read-out: Pre-emergence activity SETFA (100=total damage to plant; 0=no damage to plant)
Outline: as §1

[7] = tested on: Alopecurus myosuroides (ALOMY); assay: Example B post-emergence herbicidal activity, glasshouse pot test; conditions: 312 h, rate 250 g/ha, evaluated after 13 days, read-out: Post-emergence activity ALOMY (100=total damage to plant; 0=no damage to plant)
Outline: as §1

[8] = tested on: Echinochloa crus-galli (ECHCG); assay: as above; conditions: 312 h, rate 250 g/ha, evaluated after 13 days, read-out: Post-emergence activity ECHCG (100=total damage to plant; 0=no damage to plant)
Outline: as §1

Solanum nigrum (SOLNI) [9] = assay: as above; conditions: 312 h, rate 250 g/ha, evaluated after 13 days, read-out: Post-emergence activity SOLNI (100=total damage to plant; 0=no damage to plant)
Outline: as §1

Avena fatua (AVEFA) [10] = assay: as above; conditions: 312 h, rate 250 g/ha, evaluated after 13 days, read-out: Post-emergence activity AVEFA (100=total damage to plant; 0=no damage to plant)
Outline: as §1

[11] = tested on: Amaranthus retroflexus (AMARE); assay: as above; conditions: 312 h, rate 250 g/ha, evaluated after 13 days, read-out: Post-emergence activity AMARE (100=total damage to plant; 0=no damage to plant)
Outline: as §1

Setaria faberi (SETFA) [12] = assay: as above; conditions: 312 h, rate 250 g/ha, evaluated after 13 days, read-out: Post-emergence activity SETFA (100=total damage to plant; 0=no damage to plant)
Outline: as §1

SMILES | pest or weed control at 250 g/ha [1] | pest or weed control at 250 g/ha [2] | pest or weed control at 250 g/ha (Solanum nigrum (SOLNI) [3]) | pest or weed control at 250 g/ha (Avena fatua (AVEFA) [4]) | pest or weed control at 250 g/ha [5] | pest or weed control at 250 g/ha (Setaria faberi (SETFA) [6]) | pest or weed control at 250 g/ha [7] | pest or weed control at 250 g/ha [8] | pest or weed control at 250 g/ha (Solanum nigrum (SOLNI) [9]) | pest or weed control at 250 g/ha (Avena fatua (AVEFA) [10]) | pest or weed control at 250 g/ha [11] | pest or weed control at 250 g/ha (Setaria faberi (SETFA) [12])
CCc1ccc(-c2ccc(Cl)nc2)cc1C1=C(O)C(C)(C)C(=O)C(C)(C)C1=O [Compound B-9] | 0% | 0% | 0% | 0% | 0% | 0% | 40% | 80% | 20% | 0% | 40% | 70%
CCc1ccc(-c2ccc(Cl)c(C(F)(F)F)c2)cc1C1=C(O)C(C)(C)C(=O)C(C)(C)C1=O [Compound B-10] | 0% | 30% | 20% | 0% | 0% | 50% | 40% | 90% | 0% | 20% | 40% | 80%
CCc1ccc(-c2ccc(Cl)c(F)c2)cc1C1=C(O)C(C)(C)C(=O)C(C)(C)C1=O [Compound B-12] | 0% | 30% | 0% | 0% | 0% | 50% | 60% | 100% | 0% | 0% | 30% | 90%
CCc1ccc(-c2ccc(Cl)cc2Cl)cc1C1=C(O)C(C)(C)C(=O)C(C)(C)C1=O [Compound B-13] | 0% | 30% | 0% | 20% | 0% | 20% | 0% | 80% | 0% | 30% | 20% | 90%
Cc1ccc(-c2ccc(Cl)cc2F)cc1C1=C(O)C(C)(C)C(=O)C(C)(C)C1=O [Compound B-18] | 40% | 0% | 0% | 0% | 0% | 20% | 10% | 60% | 0% | 0% | 0% | 70%
Cc1ccc(-c2ccc(Cl)c(F)c2)cc1C1=C(O)C(C)(C)C(=O)C(C)(C)C1=O [Compound B-23] | 0% | 10% | 0% | 0% | 0% | 0% | 30% | 60% | 0% | 0% | 0% | 70%
CCc1ccc(-c2ccc(Cl)cc2OC)cc1C1=C(O)C(C)(C)C(=O)C(C)(C)C1=O [Compound B-25] | 0% | 0% | 0% | 0% | 0% | 0% | 20% | 70% | 0% | 0% | 0% | 20%
